The text below walks through data of patent US7691387B2, “Cinnamomi and poria composition, method to prepare same and uses thereof” (Jiangsu Kanion Pharmaceutical Co., Ltd, priority 2000, dated 2010).

Read-outs that look alike come from different tables or passages of the source.

In series [1] the test system is rats' Whole Blood Ratio Viscosity. Description: Whole Blood Ratio Viscosity of rats. To be noted: 0.2 g/kg, 5 days. The class given is in vivo, Wister rats. The method, then:
Drug dispensation: put a 12.5 g extract of CCP in a 100 ml solution of normal saline and mix adequately. The drug concentration is 0.125 g/ml (containing 0.5 g/ml of crude drugs). Put a 25 extract of CCP in 100 ml of normal saline. The drug concentration is 0.25 g/ml (containing […] of crude drugs). Put a 50 extract of CCP in a 100 ml of normal saline and mix adequately. The drug concentration is 0.5 g/ml (containing 2 g/ml crude drugs).
Persantine: put 2 in normal saline and mix adequately. The drug concentration will be 20 mg/ml.
Experimental processing: Randomly divide male Wister rats weighing 250 to 300 g into five groups with eight rats in each group. Low, medium and high dose groups can take the extract of CCP in a concentration of 10 ml/kg. The concentration of crude drugs is 5 g/kg, 10.0 g/kg and 20 g/kg respectively. The control group takes normal saline of the same volume; positive medicine group takes 0.2 g/kg, which is 10 ml/kg of persantine. The drug must be administered once a day for five consecutive days. After an hour and a half of administering the drug on the fifth day, lightly anaesthetize the […] with ether. Record 40 test tubes, and put 0.1 ml heparin in each. Take blood from the abdominal aorta of the […] and fill each tube with 1 ml of blood. Then use XN-5 Type Blood Viscometer to determine the Whole Blood Ratio Viscosity.

Series [2] has as its system mice bone marrow cells. In words: Micronucleus test. The class given is in vivo, ICR mouse. The method, then:
30 mice were randomly divided into 5 groups, each group contained 6 animals. Three of the groups were drug-groups and animals in them were given to CCP by gastric gavage at doses of 2.5 g/kg/day, 1.25 g/kg/day and 0.625 g/kg/day for 2 days. (LD50 of CCP from an acute toxicity test was 5 g/Kg, we adopted a half dose for our study). The fourth group is given to normal saline (0.5 ml/mice) as a negative control group. The last group was given to cyclophosphamide(CP) at 40 mg/Kg via abdominal cavity injection as a positive control group.
Animals were killed 24 hours after administration. Both femurs of the mice were taken for sampling. Femurs were pressed to move out the marrow, with a drop of calf serum added to it, smear the marrow on a plate. After the smeared plate was fixed in the solution of methyl for 10 minutes, it was dyed with the Giemsa's method and observed under the oil lens of a microscope. In the principle of double-blinded study, PCE and MNPCE cells were counted. 1000 PCE and MNPCE cell were counted for each mice, calculated the ratio of micronuclei over the 1000 cells. The ratio of micronuclei represents the dose-effectiveness relation. The data was analyzed with statistical t test.

For series [3] the following is noted: cited from earlier work.
Series [4] relates to uterine smooth muscle induced by oxytocin. In words: Contraction of uterine smooth muscle induced by oxytocin. Also on record: species or system Wister rats; contraction frequency: unit not given here. The note with it: for contraction frequency: oxytocin 10 mu/ml alone; for contraction activity / contraction activity, controlling % / contraction frequency, controlling % / contraction range / contraction range, controlling %: oxytocin alone. The method, then:
(§1) Twenty-four hours prior to the experiment, intramuscularly inject non-pregnant female rats with a 0.3 mg/kg weight-dose of Dihydrotheelin. The effect artificially puts them in estrus period so as to increase their sensitivity to the CCP. Decapitate the rats, rapidly paunch, take out the uterus and remove the fat. Cut the uterus in 2 cm of length and put it directly in the homothermic flume with 9 ml of the Locke's solution. One end of the uterus must be fixed on the crotchet of the L shaped ventilating pipe and the other end connected to the Muscle Tension Transducer. Keep the temperature of the homothermic flume at 32° C. Continuously emit oxygen into the fume, at least 60-80 bladders per minute and add in 1 ml of the previous solution with a different concentration. After recording a segment of normal contraction curve, observe the different phases before-and-after administering the drug. Respectively, record the contraction frequency and range. Observe from 1 to 10, 10 to 20, and 20 to 30 minutes before-and-after adding the drug solution. Count the uterine activity, and record data between control groups before-and-after administering the drug.
Observe CCP's effect in smooth muscle contraction of rats' extracorporeal uterine induced by oxytocin. Respectively, record the contraction frequency and range. Observe from 1 to 10, 10 to 20, and 20 to 30 minutes before-and-after adding the drug solution. Count the uterine activity and the inhibitory percentage. Record data as previously done.
Animals' Grouping: randomly divide Wister female rats' extra-corporeal uteruses into normal saline control group (NSG) and CCP's group. The CCP's group is formed by 4 subgroups with seven uteruses each. The dose of CCP's extract is respectively 5.4, 2.7, 1.3, and 0.6 mg/ml.
Results: after adding 10 mu/ml oxytocin to the normal uterine smooth muscle there is an increase of the contraction frequency and the uterine activity. The contraction range is also affected reaching its peak for about 10 min to then stabilize on the level. After 40 minutes, the effect gradually drops. After the oxytocin reacts for 10 minutes, add in a different dose of CCP's extract, and compare the possible differences between the CCP's group and the oxytocin's group. A 5.4, 2.7 mg/ml dose of CCP's extract can control the increase of uterine activity induced by oxytocin, and mainly reduce contraction frequency of uterine smooth muscle (See Table 8 and 13).

In series [5] the test system is rats' extra-corporeal uterine smooth muscle. Description: Contraction of normal rats' extra-corporeal uterine smooth muscle. Further details: species or system Wister rats. The note with it: 7 μg/ml. The method, then: a) Put 5.4g extract of CCP in 100 ml of the Locke's solution and mixed thoroughly. The drug concentration results in 54 mg/ml. Take 1 ml of this solution, put it into a homothermic flume with 9 ml of the Locke's solution. The drug concentration from this mixture contains 5.4 mg/ml. Likewise, put 2.7 g extract of CCP in 100 ml of the Locke's solution and mixed thoroughly. Take 1 ml of this mixture, combine it with 9 ml of Locke's solution and the drug concentration will result in 2.7 mg/ml. Mix up 100 ml of the Locke's solution with a 1.9 g CCP's extract. Take 1 ml of this mixture, combine it with 9 ml of the Locke's solution and the drug concentration will result in 1.9 mg/ml. Mix 200 ml of the Locke's solution with 2.6 of CCP's extract, the concentration will result in 13 mg/ml. Take 1 ml of this mixture, combine it with 9 ml of the Locke's solution which results in a drug concentration of 1.3 mg/ml. Mix 200 ml or 300 ml of the Locke's solution with 1.8 CCP's resulting in a drug concentration of 9 mg/ml and 6 mg/ml respectively. Take 1 ml of this mixture into homothermic flume with 9 ml of the Locke's solution. The result is a drug concentration containing 0.9 mg/ml and 0.6 mg/ml respectively
9.0 of NaCL, 0.42 of KCL, 0.24 of CaCL2, 0.2 of NaHCO3 and 1.0 g of glucose. Mixed with distilled water until obtaining 1000 ml. PH is about 7.
as §1
Animals' Grouping: randomly divide the Wister female rats' extracorporeal uteruses into a normal saline control group (NSG) and a CCP group (CCPG). […]

The mark [6] stands for this setting: cyclophosphamide 40 mg/Kg, per 1000 cells.

In the case of `OCCN(CCO)c1nc(N2CCCCC2)c2nc(N(CCO)CCO)nc(N3CCCCC3)c2n1` [Persantine], in series [1], the “Whole Blood Ratio Viscosity, high shear” value came to 12.10 ± 1.90 and the “Whole Blood Ratio Viscosity, low shear” value stood at 16.12 ± 6.92.

Turning to `O=P1(N(CCCl)CCCl)NCCCO1` (stereo not drawn) [Positive control, cyclophosphamide], in series [2] (cyclophosphamide 40 mg/Kg abdominal cavity injection, 6000 PCE cells), the “number of Micronuclei” value is 381. In series [2] (setting [6]), the “incidence of micronuclei, Range” value was 43-98 and the “incidence of micronuclei, X ± SD” value is given as 63.5000 ± 20.6373. For the same molecule, the “incidence of micronucleus” value in series [2] (cyclophosphamide injection 40 mg/Kg) was “obviously higher than the negative control”.

With `N#C[C@H](O[C@@H]1O[C@H](CO[C@@H]2O[C@H](CO)[C@@H](O)[C@H](O)[C@H]2O)[C@@H](O)[C@H](O)[C@H]1O)c1ccccc1` [Amygdalin, Benzeneacetonitrile, α-[(6-O-β-D-glucopyranosyl-β-D-glucopyranosyl)oxy]-, (R)—], the “volume in which 1 g resolves” value was 11 mL in series [3] (boiling ethanol), 900 mL in series [3] (ethanol) and 12 mL in series [3] (water).

On to `CC[C@H](C)[C@@H]1NC(=O)[C@H](Cc2ccc(O)cc2)NC(=O)[C@@H](N)CSSC[C@@H](C(=O)N2CCC[C@H]2C(=O)N[C@@H](CC(C)C)C(=O)NCC(N)=O)NC(=O)[C@H](CC(N)=O)NC(=O)[C@H](CCC(N)=O)NC1=O` [Oxytocin], for which the contraction frequency is 11.7 ± 1.5 in series [4] (after adm. 1-10 mins), 11.6 ± 1.9 in series [4] (after adm. 10-20 mins), 10.9 ± 1.17 in series [4] (after adm. 20-30 mins) and 7.0 ± 1.3 in series [4] (before adm.). For the same molecule, the contraction activity in series [4] (after adm. 1-10 mins) worked out at 118.8 ± 77.6%; in series [4] (after adm. 10-20 mins), 129.6 ± 97.3%; in series [4] (after adm. 20-30 mins) it was 111.2 ± 86.5%; in series [4] (before adm.) it was 56.9 ± 21.6%; in series [4] (column Oxytocin) it was 84.7 ± 22.0%. Besides, the “contraction activity, controlling %” value in series [4] (after adm. 1-10 mins) is on record as −108.8%; in series [4] (after adm. 10-20 mins), −127.8%; in series [4] (after adm. 20-30 mins) it was −95.4%; in series [4] (column Oxytocin), −48.9%. For the same molecule, the “contraction frequency, controlling %” value in series [4] (after adm. 1-10 mins) is −67.1%; in series [4] (after adm. 10-20 mins), −65.7%; in series [4] (after adm. 20-30 mins), −55.7%; in series [4] (column Oxytocin) it was −91.4%. The contraction range is given as 9.7 ± 5.0 mm in series [4] (after adm. 1-10 mins); 10.4 ± 5.7 mm in series [4] (after adm. 10-20 mins); 9.7 ± 6.1 mm in series [4] (after adm. 20-30 mins); 8.0 ± 2.6 mm in series [4] (before adm.); 7.3 ± 3.2 mm in series [4] (column Oxytocin). Also, the “contraction range, controlling %” value in series [4] (after adm. 1-10 mins) is listed as −21.3%; in series [4] (after adm. 10-20 mins), −30.0%; in series [4] (after adm. 20-30 mins), −21.3%; in series [4] (column Before adm.), 8.8%.

As to Pregnendione [Progestin], in series [5], the “contraction frequency of rats' uterine smooth muscle” value is on record as “can control contraction frequency”. Also, in series [5] (after adm. 0-20 mins), the contraction frequency is 6.3 ± 2.5 time/10 mins. For the same molecule, in series [5] (after adm. 1-10 mins), the contraction activity came out at 47.2 ± 22.9%; the “contraction activity, controlling %” value came out at 31.9%; the contraction frequency turned out to be 6.1 ± 2.0 time/10 mins; the “contraction frequency, controlling percentage” value was found to be 23.8%. In series [5] (after adm. 1-10 mins), the contraction range was 7.4 ± 2.3 mm and the “contraction range, controlling percent” value stood at 14.0%. Moreover, in series [5] (after adm. 10-20 mins), the contraction activity was 46.3 ± 27.9%; the “contraction activity, controlling %” value came to 33.2%; the “contraction frequency, controlling percentage” value was determined as 21.3%; the contraction range was 7.0 ± 2.6 mm. Besides, in series [5] (after adm. 10-20 mins), the “contraction range, controlling percent” value stood at 18.6%. Besides, in series [5] (after adm. 20-30 mins), the contraction activity was 35.2 ± 22.5%; the “contraction activity, controlling %” value is reported as 49.2%; the contraction frequency came out at 5.0 ± 2.4 time/10 mins; the “contraction frequency, controlling percentage” value is on record as 37.5%. For the same molecule, in series [5] (after adm. 20-30 mins), the contraction range worked out at 7.0 ± 2.8 mm and the “contraction range, controlling percent” value is listed as 18.6%. Moreover, in series [5] (before adm.), the contraction activity is 69.3 ± 20.9%, the contraction frequency was found to be 8.0 ± 0.8 time/10 mins and the contraction range stood at 8.6 ± 2.2 mm.
